Experimental data published in patent EP4813990A1, “COMPOUND FOR TREATING CANCER” (INNOLAKE BIOPHARMA (HANGZHOU) CO., LTD., priority 2023, dated 2025).

Test: In vivo metabolism in cynomolgus monkeys (plasma profile)
Details: male and female monkeys
From the text: In in vivo metabolism experiments of cynomolgus monkeys, the relative abundance of parent drug ILB-2109 in plasma samples of male and female monkeys was more than 83%, which was the main component in plasma samples. ILB-2109 was mainly metabolized via oxidation, dehydrogenation and glucuronidation in monkey plasma.

Cc1cc(-c2c(-c3ccccc3)nc(N)n3nc(CO)nc23)cc(C(F)(F)F)n1 [ILB-2109]
relative abundance of parent drug in plasma samples: more than 83%
